Measured values as given in ChEMBL document CHEMBL4382254, “Design, synthesis, structure-activity relationships and mechanism of action of new quinoline derivatives as potential antitumor agents” (Eur J Med Chem, 2019).
pIC50: −log10 of the molar value. Active and inactive are the calls of the source. The rule behind the calls is not given here.

Assays:
[1] = biological target: Cellular tumor antigen p53 (Homo sapiens) (UniProt P04637); assay: Activation of P53 in human HCT116 cells assessed as increase in PUMA expression at 2.5 to 20 uM after 24 hrs by immunoblot analysis; type: cell-based
Sequence of Cellular tumor antigen p53 (Homo sapiens) (P04637 whole entry, looked up): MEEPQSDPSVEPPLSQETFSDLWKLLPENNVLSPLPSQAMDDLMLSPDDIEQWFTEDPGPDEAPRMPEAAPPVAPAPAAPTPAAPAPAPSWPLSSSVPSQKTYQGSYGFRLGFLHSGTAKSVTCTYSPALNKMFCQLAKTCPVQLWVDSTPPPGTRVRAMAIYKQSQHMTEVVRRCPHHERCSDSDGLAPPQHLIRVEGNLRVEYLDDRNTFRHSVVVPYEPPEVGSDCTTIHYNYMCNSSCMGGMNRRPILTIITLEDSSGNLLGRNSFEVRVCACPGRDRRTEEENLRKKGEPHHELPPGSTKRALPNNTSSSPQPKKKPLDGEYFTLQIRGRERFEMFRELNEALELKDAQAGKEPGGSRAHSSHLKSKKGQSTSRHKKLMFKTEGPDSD

SK-OV-3 = assay: Cytotoxicity against human SKOV3 cells after 48 hrs by MTT assay; type: functional, cell-based; details: SK-OV-3, 48 h
RKO [2] = assay: Induction of morphological changes in human RKO cells assessed as reduction in cell number at 5 to 10 uM after 24 hrs by phase contrast microscopic analysis; type: functional, cell-based
HCT-116 [3] = assay: Induction of apoptosis in human HCT116 cells assessed as early apoptotic cells at 5 uM after 24 hrs by Annexin V-FITC/propidium iodide staining based flow cytometry (reference value: 3.32 to 5.5%); type: functional
HCT-116 [4] = assay: Induction of apoptosis in P53-deficient human HCT116 cells assessed as early apoptotic cells at 5 uM after 24 hrs by Annexin V-FITC/propidium iodide staining based flow cytometry (reference value: 5.96%); type: functional
HCT-116 [5] = assay: Cell cycle arrest in human HCT116 cells assessed as accumulation at S phase at 5 uM after 24 hrs by propidium iodide staining based flow cytometry (reference value: 5.55%); type: functional
HCT-116 [6] = assay: Induction of apoptosis in Bax-deficient human HCT116 cells assessed as late apoptotic cells at 5 uM after 24 hrs by Annexin V-FITC/propidium iodide staining based flow cytometry (reference value: 14.67%); type: functional
HCT-116 [7] = assay: Anticancer activity against human HCT116 cells xenografted in […] mouse assessed as reduction in tumor weight at 80 mg/kg administered once every 3 days for 21 days; type: functional, organism-based
HCT-116 [8] = assay: Induction of apoptosis in human HCT116 cells assessed as decrease in pro-caspase3 level at 2.5 to 10 uM after 24 hrs by immunoblot analysis; type: functional, cell-based
HepG2 = assay: Cytotoxicity against human HepG2 cells after 48 hrs by MTT assay; type: functional, cell-based; details: HepG2, 48 h
DLD-1 [9] = assay: Cytotoxicity against human DLD1 cells after 48 hrs by MTT assay; type: functional, cell-based; details: DLD-1, 48 h
HCT-116 [10] = assay: Cytotoxicity against human HCT116 cells after 48 hrs by MTT assay; type: functional, cell-based; details: HCT-116, 48 h
RKO [11] = assay: Induction of morphological changes in human RKO cells assessed as cell shrinkage at 5 to 10 uM after 24 hrs by phase contrast microscopic analysis; type: functional, cell-based
HCT-116 [12] = assay: Induction of apoptosis in human HCT116 cells assessed as late apoptotic cells at 2.5 to 5 uM after 24 hrs in presence of pan-caspase inhibitor z-VAD-FMK by Annexin V-FITC/propidium iodide staining based flow cytometry (reference value: 7.29%); type: functional
RKO [13] = assay: Cytotoxicity against human RKO cells assessed as reduction in cell viability at 5 uM incubated for 24 hrs followed by compound washout by CCK8 assay; type: functional, cell-based; details: TDE = time-dependent effect
[14] = biological target: Cellular tumor antigen p53 (Homo sapiens) (UniProt P04637); assay: Induction of P53 phosphorylation at Ser15 residue in human HCT116 cells after 15 to 90 mins by immunoblot analysis; type: cell-based
HCT-116 [15] = assay: Induction of apoptosis in P53-deficient human HCT116 cells assessed as decrease in PARP expression at 2.5 to 20 uM after 24 hrs by immunoblot analysis; type: functional, cell-based
[16] = biological target: Cellular tumor antigen p53 (Homo sapiens) (UniProt P04637); assay: Induction of P53 translocation to nucleus in human HCT116 cells measured after 15 to 90 mins by immunoblot analysis; type: cell-based
HCT-116 [17] = assay: Induction of apoptosis in human HCT116 cells assessed as necrotic cells at 5 uM after 24 hrs by Annexin V-FITC/propidium iodide staining based flow cytometry (reference value: 3.46 to 9.31%); type: functional
RKO [18] = assay: Cytotoxicity against human RKO cells after 48 hrs by MTT assay; type: functional, cell-based
HCT-116 [19] = assay: Inhibition of colony formation in P53-deficient human HCT116 cells after 24 hrs by crystal violet staining based assay; type: functional, cell-based
HCT-116 [20] = assay: Induction of apoptosis in Bax-deficient human HCT116 cells assessed as viable cells at 5 uM after 24 hrs by Annexin V-FITC/propidium iodide staining based flow cytometry (reference value: 70.58%); type: functional; details: HCT-116, 24 h, read-out: Activity
DLD-1 [21] = assay: Induction of morphological changes in human DLD1 cells assessed as cell shrinkage at 5 to 10 uM after 24 hrs by phase contrast microscopic analysis; type: functional, cell-based
HCT-116 [22] = assay: Induction of apoptosis in Bax-deficient human HCT116 cells assessed as necrotic cells at 5 uM after 24 hrs by Annexin V-FITC/propidium iodide staining based flow cytometry (reference value: 6.74%); type: functional
HCT-116 [23] = assay: Induction of apoptosis in human HCT116 cells assessed as increase in early apoptotic cells after 24 hrs by Annexin V-FITC/propidium iodide staining based flow cytometry; type: functional, cell-based
HCT-116 [24] = assay: Anticancer activity against human HCT116 cells xenografted in […] mouse assessed as tumor growth inhibition at 80 mg/kg administered once every 3 days for 21 days; type: functional, organism-based
HCT-116 [25] = assay: Induction of apoptosis in human HCT116 cells assessed as necrotic cells at 2.5 uM after 24 hrs by Annexin V-FITC/propidium iodide staining based flow cytometry (reference value: 3.46%); type: functional
HCT-116 [26] = assay: Induction of morphological changes in human HCT116 cells assessed as cell shrinkage at 5 to 10 uM after 24 hrs by phase contrast microscopic analysis; type: functional, cell-based
HCT-116 [27] = assay: Induction of apoptosis in human HCT116 cells assessed as viable cells at 2.5 to 5 uM after 24 hrs in presence of pan-caspase inhibitor z-VAD-FMK by Annexin V-FITC/propidium iodide staining based flow cytometry (reference value: 88.08%); type: functional
HCT-116 [28] = assay: Induction of morphological changes in human HCT116 cells assessed as reduction in cell number at 5 to 10 uM after 24 hrs by phase contrast microscopic analysis; type: functional, cell-based
HCT-116 [29] = assay: Cell cycle arrest in human HCT116 cells assessed as accumulation at S phase at 5 uM after 48 hrs by propidium iodide staining based flow cytometry (reference value: 6.79%); type: functional
NCI-H1650 = assay: Cytotoxicity against human NCI-H1650 cells after 48 hrs by MTT assay; type: functional, cell-based; details: NCI-H1650, 48 h
FHC = assay: Cytotoxicity against human FHC cells assessed as reduction in cell viability at 10 to 20 uM incubated for 24 hrs by CCK8 assay; type: cell-based
HCT-116 [30] = assay: Cytotoxicity against human HCT116 cells assessed as reduction in cell viability measured after 24 hrs by CCK8 assay; type: functional, cell-based; details: HCT-116, 24 h
HCT-116 [31] = assay: Induction of intracellular reactive oxygen species generation in human HCT116 cells at 5 to 10 uM after 24 hrs by DCFH-DA staining based flow cytometry; type: functional, cell-based
HCT-116 [32] = assay: Induction of apoptosis in P53-deficient human HCT116 cells assessed as increase in PUMA expression at 2.5 to 20 uM after 24 hrs by immunoblot analysis; type: functional, cell-based
HCT-116 [33] = assay: Induction of apoptosis in human HCT116 cells assessed as late apoptotic cells at 2.5 uM after 24 hrs by Annexin V-FITC/propidium iodide staining based flow cytometry (reference value: 6.08%); type: functional
[34] = biological target: Cellular tumor antigen p53 (Homo sapiens) (UniProt P04637); assay: Activation of P53 in human HCT116 cells assessed as increase in Bax expression at 2.5 to 20 uM after 24 hrs by immunoblot analysis; type: cell-based

`CN(C)CCNc1ccnc2cc(OCc3ccc(F)cc3)ccc12` was tested, and the Activity [1] was “Active”, the pIC50 (SK-OV-3) was 6.05 and the Activity (RKO [2]) was “Active”. For the same compound, the Activity (HCT-116 [3]) was 6.13 - 19.42%, the Activity (HCT-116 [4]) was 5.29% and the Activity (HCT-116 [5]) was 4.38%. For the same compound, the Activity (HCT-116 [6]) was 7.29%, the Activity (HCT-116 [7]) was “Active” and the Activity (HCT-116 [8]) was “Active”. For the same compound, the pIC50 (HepG2) was 6.10, the pIC50 (DLD-1 [9]) was 6.09 and the pIC50 (HCT-116 [10]) was 6.43. The Activity (RKO [11]) was “Active”, the Activity (HCT-116 [12]) was 10.05% and the Activity (RKO [13]) was “Tde”. For the same compound, the Activity [14] was “Active”, the Activity (HCT-116 [15]) was “inactive” and the Activity [16] was “Active”. The Activity (HCT-116 [17]) was 9.3 - 10.45%, the pIC50 (RKO [18]) was 6.24 and the inhibition (HCT-116 [19]) was “inactive”. The viability at 5 µM (HCT-116 [20]) was 77.3%, the Activity (DLD-1 [21]) was “Active” and the Activity (HCT-116 [22]) was 1.24%. The Activity (HCT-116 [23]) was “Dose-dependent effect”, the TGI (HCT-116 [24]) was “Active” and the Activity (HCT-116 [25]) was 6.64%. The Activity (HCT-116 [26]) was “Active”, the Activity (HCT-116 [27]) was 84.15% and the Activity (HCT-116 [28]) was “Active”. For the same compound, the Activity (HCT-116 [29]) was 7.61%, the pIC50 (NCI-H1650) was 6.11 and the Activity (FHC) was “Toxic”. The pIC50 (HCT-116 [30]) was 4.14, the Activity (HCT-116 [31]) was “inactive” and the Activity (HCT-116 [32]) was “inactive”. The Activity (HCT-116 [33]) was 10.32% and the Activity [34] was “Active”.
